Literature values, collected in patent publication US12296348B2, “Electrostatic precipitator” (TECHNISCHE UNIVERSITÄT DORTMUND, priority 2019, dated 2025).

Conditions: solubility limited in terms of its bioavailability

In the case of COc1ccc2cc([C@H](C)C(=O)O)ccc2c1 [unprocessed naproxen, naproxen], the BCS classification is listed as “Class II”.
